Source: ChEMBL document CHEMBL6114967, “Design and synthesis of novel sulfur-substituted triptolide with the ability to induce autophagy through inhibition of SRSF1 expression” (Eur J Med Chem, 2025)
Activity calls are given as the source filed them. The rule behind the calls is not given here.

Columns and labels:
AGS [1] = test: Induction of cell cycle arrest in human AGS cells assessed as reduction in CyclinE2 expression at 0.5 to 2 uM by Western blotting analysis; type: functional, cell-based; conditions: dose 0.5-2 µM
AGS [2] = test: Antiproliferative activity against human AGS cells assessed as inhibition of cell proliferation incubated for 72 hrs by MTT assay; type: functional, cell-based
[3] = Toxicity in male BALB/c nude mouse assessed as change in body weight at 25 to 100 mg/kg, ip administered daily and measured after 15 days; type: organism-based; conditions: in vivo, 360 h, dose 25-100 mg/kg, time 15 day
[4] = Toxicity in male ICR mouse assessed as body weight gain at 1 g/Kg, ip measured after 7 days; type: organism-based; conditions: in vivo, 1000 mg/kg, 168 h, time 7 day
U-251 = test: Antiproliferative activity against human U-251 cells assessed as inhibition of cell proliferation incubated for 72 hrs by MTT assay; type: functional, cell-based; conditions: U-251, 72 h
B16-F10 = test: Antiproliferative activity against mouse B16-F10 cells assessed as inhibition of cell proliferation incubated for 72 hrs by MTT assay; type: functional, cell-based; conditions: B16-F10, 72 h
HGC-27 = test: Downregulation of Bcl-xl expression in human HGC-27 cells at 0.5 to 2 uM incubated overnight by Western blotting analysis; type: functional, cell-based; conditions: dose 0.5-2 µM
AGS [5] = test: Induction of apoptosis in human AGS cells assessed as early apoptotic cells at 0.5 uM incubated for 48 hrs by annexin V-FITC and PI staining based flow cytometry analysis (reference value: 4.44%); type: functional
AGS [6] = test: Induction of cell cycle arrest in human AGS cells assessed as increase in S phase ratio at 0.5 to 2 uM incubated for 24 hrs by staining based flow cytometric analysis ( Rvb = 32.86%); type: functional; conditions: dose 0.5-2 µM

In the case of `CC(C)[C@]12O[C@H]1[C@@H]1O[C@]13[C@]1(O[C@H]1C[C@H]1C4=C(CC[C@@]13C)C(=S)OC4)[C@@H]2O`, the Activity (AGS [1]) is reported as “Active”, the IC50 (AGS [2]) is reported as 640 nM and the Activity [3] is reported as “Non-toxic”. For the same compound, the Activity [4] was “Non-toxic”, the IC50 (U-251) was 1620 nM and the IC50 (B16-F10) was 330 nM. For the same compound, the Activity (HGC-27) was “Active”, the Activity (AGS [5]) was 9.27% and the Activity (AGS [6]) was 52.16%.
